# Laboratory results as given in US10654890B2, “Cyclic peptide derivative, method for preparing same and composition thereof” (priority 2014, dated 2020).
# Where a name gives a salt, the structure may show the parent alone.
# Columns and labels:
# Type in all cases: in vivo
# [1] = test system: senescence-accelerated model mouse SAMP8; assay: Coefficient of friction measurement test of body hair
# Description: Considering that the anti-aging effect for body hair and hair has been analyzed until now by using a senescence-accelerated model mouse (SAMP8) (Non Patent Literature 40), the inventors of the present invention also conducted an analysis regarding the anti-aging effect for body hair and hair for a senescence-accelerated model mouse administered with the cyclic peptide derivative by using a static and dynamic friction tester and a scanning probe microscope (SPM).
# Coefficient of friction of animal hair and body hair is closely related to the state of cuticle as a scale-like tissue present on a surface of hair and body hair, and it is considered that the value of coefficient of friction (COF) increases as damages on cuticle of a hair and body hair increases (Non Patent Literature 40). It is also known that, when the damages on cuticle are high, moisture or nutrients of hair and body hair are lost from the damaged part of cuticle.
# As for the apparatus, a handy rub tester TL701 (manufactured by Trinity-Lab Inc.), which is a static and dynamic friction tester, was used. […] Namely, the apparatus even allows measurement of friction on a surface of skin or materials which have a complex curved surface.
# The contact member of a static and dynamic friction tester was closely pressed on body hair on forehead part of a mouse, and while applying a load of about 1 N, the member was moved, through an area between two ears, from the forehead to neck part of the mouse for about ten seconds, and the coefficient of friction (COF) was measured. The coefficient of friction (COF) was measured 5 to 10 times per mouse, and an average value thereof was calculated.
# [2] = test system: senescence-accelerated model mouse SAMP8; assay: Step through passive avoidance test
# Description: As a mouse for an in vivo test of the cyclic peptide derivative, senescence-accelerated model mouse SAMP8 which is used as a cognitive disorder model animal of initial Alzheimer's disease accompanied with aging was selected, and as a control, SAMR1 mouse with normal aging was selected.
# 19-Week old male mice of SAMR1 and SAMP8 were purchased from Japan SLC, Inc., and divided into 5 groups, i.e., mouse group with normal aging (SAMR1), senescence-accelerated model mouse group (SAMP8), {P8+donepezil hydrochloride 1250 μg/kg/day} group as a positive control, and {P8+cyclic peptide derivative 2.5 μg/kg/day} group and {P8+cyclic peptide derivative 25 μg/kg/day} group as a test group. The animal was individually kept, i.e., one animal per cage, in a room with controlled environment {room temperature: 23±2° C., light and dark cycle: lighting time of 12 hours (time with light: 07:00 to 19:00), time without light: 12 hours}. The test was carried out in a time window of from 13:00 to 18:00 in an incubator with constant temperature and constant humidity (temperature 23±2° C., humidity 50±10%). After 10 days of an acclimation period, all mice were provided with standard meal (MEQ, Oriental Yeast Company) and body weight of the animal was recorded everyday during the entire test period. […]
# (3) {P8+donepezil hydrochloride 1250 μg/kg/day} group: As a positive control, donepezil hydrochloride (Sanyo Chemical Laboratories CO., LTD.) was dissolved in MQ and prepared to have a concentration of 1250 μg/kg (bodyweight), and then orally administered to a SAMP8 for 5 weeks by using a gastric sonde. The concentration was accurately calculated based on the bodyweight which has been measured every day. […]
# (4) {P8+cyclic peptide derivative 2.5 μg/kg/day} group: As a test group, the cyclic peptide derivative was dissolved in MQ and prepared to have a concentration of 2.5 μg/kg (bodyweight), and then orally administered to a SAMP8 for 5 weeks by using a gastric sonde. The concentration was accurately calculated based on the bodyweight which has been measured every day. […]
# [3] = test system: senescence-accelerated model mouse SAMP8; assay: Damaged area ratio of body hair surface by scanning probe microscope
# Description: As for the apparatus, tapping mode scanning probe microscope (SPM: SPA400, Hitachi High-Tech Science Corporation) was used.
# As a sample, body hair in head and neck part of a mouse was collected by plucking from the origin, and the observation was made by using the tapping mode scanning probe microscope described above.
SMILES,"coefficient of friction (COF) of body hair ([1]; SAMP8, oral donepezil hydrochloride 1250 μg/kg/day)","latency in post-shock trial ([2]; SAMP8, oral 1250 μg/kg/day, compared to SAMP8 not administered with anything, p<0.05)","coefficient of friction (COF) of body hair ([1]; SAMP8, oral 2.5 μg/kg/day)","coefficient of friction (COF) of body hair ([1]; SAMP8, oral 25 μg/kg/day)","damage ratio on a surface of mouse body hair ([3]; SAMP8, oral 2.5 μg/kg/day)","damage ratio on a surface of mouse body hair ([3]; SAMP8, oral 25 μg/kg/day)","contextual learning ability (latency in post-shock trial) ([2]; SAMP8, oral 2.5 μg/kg/day)","contextual learning ability (latency in post-shock trial) ([2]; SAMP8, oral 25 μg/kg/day)"
"COc1cc2c(cc1OC)C(=O)C(CC1CCN(Cc3ccccc3)CC1)C2 (centres unmarked) [donepezil hydrochloride, reference compound]",the same level as that of the senescence-accelerated model mouse,short latency in significant sense,,,,,,
CCC1(C)Oc2cc(ccc2O)C(O)C(NC)C(=O)NC(C(C)C)C(=O)NC1C(=O)NC(CCC(=O)O)C(=O)O (centres unmarked) [cyclic peptide derivative],,,lowered to the same level as those of a mouse with normal aging,lowered to the same level as those of a mouse with normal aging,lowered to the same level as those of a mouse with normal aging,lowered to the same level as those of a mouse with normal aging,recovered to the level of a mouse with normal aging,recovered to the level of a mouse with normal aging
